Data from ChEMBL document CHEMBL3045406, “Enantioselective Relieving Activity of α-Methylbenzylphenylureas toward Bensulfuron-methyl Injury to Rice (Oryza sativa)” (Biosci Biotechnol Biochem, 1999).

Key:
Oryza sativa [1] = assay: Effect on Oryza sativa (rice) assessed as growth rate at 0.1 uM relative to control; type: organism-based; settings: in vivo
Oryza sativa [2] = assay: Safener indices, ratio of compound effect of Oryza sativa (rice) growth rate to relieving activity against bensulfuron-methyl induced injury to Oryza sativa growth rate at 10 uM
Oryza sativa [3] = assay: Relieving activity against bensulfuron-methyl induced injury to Oryza sativa (rice) assessed as growth rate at 0.1 uM (Rbv = 46 to 53%); type: functional
Oryza sativa [4] = assay: Relieving activity against bensulfuron-methyl induced injury to Oryza sativa (rice) assessed as growth rate at 1 uM (Rbv = 46 to 53%); type: functional
Oryza sativa [5] = assay: Relieving activity against bensulfuron-methyl induced injury to Oryza sativa (rice) assessed as growth rate at 10 uM (Rbv = 46 to 53%); type: functional
Oryza sativa [6] = assay: Effect on Oryza sativa (rice) assessed as growth rate at 10 uM relative to control; type: organism-based; settings: in vivo
[7] = Hydrophobicity, log K of the compound; type: physicochemical; settings: octanol/water
Oryza sativa [8] = assay: Safener indices, ratio of compound effect of Oryza sativa (rice) growth rate to relieving activity against bensulfuron-methyl induced injury to Oryza sativa growth rate at 1 uM
Oryza sativa [9] = assay: Effect on Oryza sativa (rice) assessed as growth rate at 1 uM relative to control; type: organism-based; settings: in vivo
Oryza sativa [10] = assay: Safener indices, ratio of compound effect of Oryza sativa (rice) growth rate to relieving activity against bensulfuron-methyl induced injury to Oryza sativa growth rate at 0.1 uM

Compound	Activity (Oryza sativa [1]) [%]	Activity (Oryza sativa [6]) [%]	log K [7]	Activity (Oryza sativa [9]) [%]	Ratio (Oryza sativa [2])	Activity (Oryza sativa [3]) [%]	Activity (Oryza sativa [4]) [%]	Activity (Oryza sativa [5]) [%]	Ratio (Oryza sativa [8])	Ratio (Oryza sativa [10])
C[C@H](NC(=O)Nc1ccc(F)cc1F)c1ccccc1	101	99	0.394	100	85	65	79	93	56	28
C[C@@H](NC(=O)Nc1cc(F)cc(F)c1)c1ccccc1	98	96	0.452	98	33	54	59	65	20	10
C[C@H](NC(=O)Nc1ccccc1Br)c1ccccc1	101	102	0.504	99	97	67	87	98	74	32
C[C@@H](NC(=O)Nc1cccc(Br)c1)c1ccccc1	100	99	0.512	100	85	66	80	92	59	31
C[C@H](NC(=O)Nc1cccc(Br)c1)c1ccccc1	100	99	0.512	100	85	66	80	92	59	31
C[C@@H](NC(=O)Nc1ccc(Br)cc1)c1ccccc1	100	87	0.488	95	76	53	77	86	55	5
C[C@H](NC(=O)Nc1ccc(Br)cc1)c1ccccc1	98	96	0.488	97	69	62	79	84	59	24
C[C@@H](NC(=O)Nc1ccccc1I)c1ccccc1	100	96	0.502	100	69	61	68	84	34	19
C[C@H](NC(=O)Nc1ccccc1I)c1ccccc1	99	98	0.502	100	77	67	85	89	70	32
C[C@@H](NC(=O)Nc1cccc(I)c1)c1ccccc1	81	73	0.568	75	53	57	66	71	44	26
C[C@H](NC(=O)Nc1cccc(I)c1)c1ccccc1	98	93	0.568	95	80	72	83	90	66	43
C[C@@H](NC(=O)Nc1ccc(I)cc1)c1ccccc1	100	85	0.556	91	63	69	78	79	58	35
C[C@H](NC(=O)Nc1ccc(I)cc1)c1ccccc1	99	95	0.556	97	85	70	85	92	70	39
C[C@@H](NC(=O)Nc1cc(C(F)(F)F)cc(C(F)(F)F)c1)c1ccccc1	100	53	0.831	93	30	56	65	49	34	10
C[C@H](NC(=O)Nc1cc(C(F)(F)F)cc(C(F)(F)F)c1)c1ccccc1	101	86	0.831	95	44	57	65	69	33	13
CCc1cccc(CC)c1NC(=O)N[C@H](C)c1ccccc1	101	99	0.523	101	53	54	63	77	25	6
CCc1cccc(CC)c1NC(=O)N[C@@H](C)c1ccccc1	101	83	0.523	93	6	52	50	46	6	1
C[C@@H](NC(=O)Nc1cc(C(C)(C)C)ccc1C(C)(C)C)c1ccccc1	100	99	1.001	99	43	57	63	73	23	11
C[C@H](NC(=O)Nc1cc(C(C)(C)C)ccc1C(C)(C)C)c1ccccc1	98	97	1.001	98	46	56	59	74	15	8

Continued, in another order:

Activity (Oryza sativa [1]) [%]	Activity (Oryza sativa [6]) [%]	log K [7]	Activity (Oryza sativa [9]) [%]	Compound	Ratio (Oryza sativa [2])	Activity (Oryza sativa [3]) [%]	Activity (Oryza sativa [4]) [%]	Activity (Oryza sativa [5]) [%]	Ratio (Oryza sativa [8])	Ratio (Oryza sativa [10])
100	92	0.464	100	C[C@@H](NC(=O)Nc1cc(F)ccc1F)c1ccccc1	57	54	67	77	34	7
100	99	0.464	98	C[C@H](NC(=O)Nc1cc(F)ccc1F)c1ccccc1	92	74	89	96	77	47
100	98	0.238	100	C[C@@H](NC(=O)Nc1c(F)cccc1F)c1ccccc1	42	51	54	71	8	2
100	99	0.238	99	C[C@H](NC(=O)Nc1c(F)cccc1F)c1ccccc1	62	53	61	81	22	6
99	96	0.398	99	C[C@@H](NC(=O)Nc1ccc(F)c(F)c1)c1ccccc1	47	52	60	73	21	4
99	98	0.398	100	C[C@H](NC(=O)Nc1ccc(F)c(F)c1)c1ccccc1	64	57	70	82	41	14
100	90	0.435	99	C[C@@H](NC(=O)Nc1cccc(F)c1F)c1ccccc1	73	53	66	85	31	5
100	100	0.435	100	C[C@H](NC(=O)Nc1cccc(F)c1F)c1ccccc1	87	68	88	93	75	36
100	93	0.394	100	C[C@@H](NC(=O)Nc1ccc(F)cc1F)c1ccccc1	66	53	61	82	21	4
